Source: patent publication US20200113181A1, “HERBICIDAL COMPOUNDS” (SYNGENTA PARTICIPATIONS AG, priority 2016, published 2020)

Key:
Format in all cases: in vivo
[1] = tested on: Setaria faberi (SETFA); assay: Glasshouse herbicide test, pre- and post-emergence, Setaria faberi; conditions: 250 g/h, evaluated after 13 days; for SETFA POST, percentage damage caused to the plant (five point scale): post-emergence; for SETFA PRE, percentage damage caused to the plant (five point scale): pre-emergence
Protocol: (§1) Seeds of a variety of test species are sown in standard soil in pots (Lolium perenne (LOLPE), Setaria faberi (SETFA), Alopecurus myosuroides (ALOMY), Echinochloa crus-galli (ECHCG), Avena fatua (AVEFA)). After cultivation for one day (pre-emergence) or after 8 days cultivation (post-emergence) under controlled conditions in a glasshouse (at 24/16° C., day/night; 14 hours light; 65% humidity), the plants are sprayed with an aqueous spray solution derived from the formulation of the technical active ingredient in acetone/water (50:50) solution containing 0.5% Tween 20 (polyoxyethelyene sorbitan monolaurate, CAS RN 9005-64-5). Compounds are applied at […]. The test plants are then grown in a glasshouse under controlled conditions in a glasshouse (at 24/16° C., day/night; 14 hours light; 65% humidity) and watered twice daily. After 13 days for pre and post-emergence, the test is evaluated for the percentage damage caused to the plant. The biological activities are shown in the following table on a five point scale (5=80-100%; 4=60-79%; 3=40-59%; 2=20-39%; 1=0-19%).

[2] = tested on: Lolium perenne (LOLPE); assay: Glasshouse herbicide test, pre- and post-emergence, Lolium perenne; conditions: 250 g/h, evaluated after 13 days; for LOLPE POST, percentage damage caused to the plant (five point scale): post-emergence; for LOLPE PRE, percentage damage caused to the plant (five point scale): pre-emergence
Protocol: as §1

[3] = tested on: Avena fatua (AVEFA); assay: Glasshouse herbicide test, pre- and post-emergence, Avena fatua; conditions: 250 g/h, evaluated after 13 days; for AVEFA POST, percentage damage caused to the plant (five point scale): post-emergence; for AVEFA PRE, percentage damage caused to the plant (five point scale): pre-emergence
Protocol: as §1

[4] = tested on: Echinochloa crus-galli (ECHCG); assay: Glasshouse herbicide test, pre- and post-emergence, Echinochloa crus-galli; conditions: 250 g/h, evaluated after 13 days; for ECHCG POST, percentage damage caused to the plant (five point scale): post-emergence; for ECHCG PRE, percentage damage caused to the plant (five point scale): pre-emergence
Protocol: as §1

[5] = tested on: Alopecurus myosuroides (ALOMY); assay: Glasshouse herbicide test, pre- and post-emergence, Alopecurus myosuroides; conditions: 250 g/h, evaluated after 13 days; for ALOMY POST, percentage damage caused to the plant (five point scale): post-emergence; for ALOMY PRE, percentage damage caused to the plant (five point scale): pre-emergence
Protocol: as §1

Compound	SETFA POST, percentage damage caused to the plant (five point scale) [1]	SETFA PRE, percentage damage caused to the plant (five point scale) [1]	LOLPE POST, percentage damage caused to the plant (five point scale) [2]	LOLPE PRE, percentage damage caused to the plant (five point scale) [2]	AVEFA POST, percentage damage caused to the plant (five point scale) [3]	AVEFA PRE, percentage damage caused to the plant (five point scale) [3]	ECHCG POST, percentage damage caused to the plant (five point scale) [4]	ECHCG PRE, percentage damage caused to the plant (five point scale) [4]	ALOMY POST, percentage damage caused to the plant (five point scale) [5]	ALOMY PRE, percentage damage caused to the plant (five point scale) [5]
CC#Cc1ccc(C2C(=O)[C@@H]3[C@H](C2=O)[C@H]2CC[C@@H]3O2)c(OCCC)c1 (mixture of isomers) [Compound 1.31]	5 (5=80-100%)	5 (5=80-100%)	5 (5=80-100%)	5 (5=80-100%)	5 (5=80-100%)	5 (5=80-100%)	5 (5=80-100%)	5 (5=80-100%)	5 (5=80-100%)	5 (5=80-100%)
CC#Cc1ccc(C2C(=O)[C@H]3[C@@H]4C=C[C@@](C)(O4)[C@H]3C2=O)c(OC)c1 (mixture of isomers) [Compound 1.6]	5 (5=80-100%)	5 (5=80-100%)	5 (5=80-100%)	5 (5=80-100%)	5 (5=80-100%)	3 (3=40-59%)	5 (5=80-100%)	5 (5=80-100%)	2 (2=20-39%)	5 (5=80-100%)
CC#Cc1ccc(C2C(=O)[C@@H]3[C@@H]4O[C@@H](C[C@@H]4CO)[C@@H]3C2=O)c(OC)c1 (mixture of isomers) [Compound 1.14]	5 (5=80-100%)		4 (4=60-79%)		5 (5=80-100%)		5 (5=80-100%)		3 (3=40-59%)	
CC#Cc1ccc(C2C(=O)[C@H]3[C@@H]4CC[C@@](C)(O4)[C@H]3C2=O)c(OC)c1 (stereo partly shown) [Compound 1.21]	5 (5=80-100%)	4 (4=60-79%)	4 (4=60-79%)	4 (4=60-79%)	5 (5=80-100%)	4 (4=60-79%)	5 (5=80-100%)	3 (3=40-59%)	4 (4=60-79%)	4 (4=60-79%)
CC#Cc1ccc(C2C(=O)[C@@H]3[C@@H]4O[C@@H](C[C@@H]4COC)[C@@H]3C2=O)c(OC)c1 (stereo in doubt) [Compound 1.19, 8-methoxymethyl-4-[2-methoxy-4-(prop-1-yn-1-yl)phenyl]-10-oxatricyclo[5.2.1.0^2,6]decane-3,5-dione]	5 (5=80-100%)	5 (5=80-100%)	5 (5=80-100%)	5 (5=80-100%)	5 (5=80-100%)	5 (5=80-100%)	5 (5=80-100%)	5 (5=80-100%)	5 (5=80-100%)	5 (5=80-100%)
CC#Cc1ccc(C2C(=O)[C@@H]3[C@H](C2=O)[C@H]2CC[C@@H]3O2)c(OCCOC)c1 (mixture of isomers) [Compound 1.32]	5 (5=80-100%)	3 (3=40-59%)	5 (5=80-100%)	4 (4=60-79%)	5 (5=80-100%)	4 (4=60-79%)	5 (5=80-100%)	3 (3=40-59%)	4 (4=60-79%)	1 (1=0-19%)
CC#Cc1ccc(C2C(=O)[C@@H]3[C@H](C2=O)[C@H]2CC[C@@H]3O2)c(OCC)c1 (mixture of isomers) [Compound 1.30]		5 (5=80-100%)	5 (5=80-100%)	5 (5=80-100%)	5 (5=80-100%)	5 (5=80-100%)	5 (5=80-100%)	5 (5=80-100%)	5 (5=80-100%)	5 (5=80-100%)
CC#Cc1ccc(C2C(=O)[C@H]3[C@@H]4CC[C@@](C)(O4)[C@H]3C2=O)c(OC)c1 (stereo partly shown) [Compound 1.22]	5 (5=80-100%)	5 (5=80-100%)	5 (5=80-100%)	5 (5=80-100%)	5 (5=80-100%)	5 (5=80-100%)	5 (5=80-100%)	5 (5=80-100%)	5 (5=80-100%)	5 (5=80-100%)
CC#Cc1ccc(C2=C(OC(=O)C(C)(C)C)[C@@H]3[C@H](C2=O)[C@@H]2O[C@H]3C[C@@H]2COC)c(OC)c1 (racemic) [Compound 1.26]	5 (5=80-100%)	5 (5=80-100%)	5 (5=80-100%)	5 (5=80-100%)	5 (5=80-100%)	5 (5=80-100%)	5 (5=80-100%)	5 (5=80-100%)	5 (5=80-100%)	5 (5=80-100%)
CC#Cc1ccc(C2C(=O)[C@@H]3[C@@H]4O[C@@H](C[C@@H]4COC)[C@@H]3C2=O)c(OC)c1 (mixture of isomers) [Compound 1.9, 8-methoxymethyl-4-[2-methoxy-4-(prop-1-yn-1-yl)phenyl]-10-oxatricyclo[5.2.1.0^2,6]decane-3,5-dione]	5 (5=80-100%)	5 (5=80-100%)	5 (5=80-100%)	5 (5=80-100%)	5 (5=80-100%)	5 (5=80-100%)	5 (5=80-100%)	5 (5=80-100%)	5 (5=80-100%)	5 (5=80-100%)
